Columns and labels:
Adenosine receptor A2b [1] = target: T1, Adenosine receptor A2b (Homo sapiens, UniProt P29275); experiment: Displacement of [3H]DPCPX from human A2B receptor expressed in HEK293 cells; type: cell-based
T1 sequence (P29275 whole entry): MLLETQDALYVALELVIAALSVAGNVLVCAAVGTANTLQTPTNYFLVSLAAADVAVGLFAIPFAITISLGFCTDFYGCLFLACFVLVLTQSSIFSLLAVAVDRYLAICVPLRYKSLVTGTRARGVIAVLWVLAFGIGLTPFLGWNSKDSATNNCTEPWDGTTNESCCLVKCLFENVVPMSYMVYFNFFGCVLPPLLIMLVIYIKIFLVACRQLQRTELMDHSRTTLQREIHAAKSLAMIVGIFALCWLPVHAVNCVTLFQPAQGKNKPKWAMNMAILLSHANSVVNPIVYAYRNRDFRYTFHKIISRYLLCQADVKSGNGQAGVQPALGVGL

Adenosine receptor A2a [2] = target: T2, Adenosine receptor A2a (Homo sapiens, UniProt P29274); experiment: Displacement of [3H]ZM-241385 from human A2A receptor expressed in HeLa cells; type: cell-based
T2 sequence (P29274 whole entry): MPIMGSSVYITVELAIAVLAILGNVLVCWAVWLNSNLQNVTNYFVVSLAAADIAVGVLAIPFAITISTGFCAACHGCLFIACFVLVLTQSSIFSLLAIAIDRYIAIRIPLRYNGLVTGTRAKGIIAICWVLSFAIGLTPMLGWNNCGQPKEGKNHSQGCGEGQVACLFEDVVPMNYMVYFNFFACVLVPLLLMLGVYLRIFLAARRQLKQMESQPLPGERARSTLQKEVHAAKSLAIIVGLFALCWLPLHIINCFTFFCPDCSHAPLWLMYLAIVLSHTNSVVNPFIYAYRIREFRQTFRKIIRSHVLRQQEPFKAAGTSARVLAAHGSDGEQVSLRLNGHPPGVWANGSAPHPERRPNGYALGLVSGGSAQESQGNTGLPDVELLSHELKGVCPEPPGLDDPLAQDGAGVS

Adenosine receptor A2a [3] = target: T2, Adenosine receptor A2a; experiment: Displacement of [3H]ZM-241385 from human A2A receptor expressed in HeLa cells at 2500 nM; type: cell-based
Adenosine receptor A1 = target: T3, Adenosine receptor A1 (Homo sapiens, UniProt P30542); experiment: Displacement of [3H]DPCPX from human A1 receptor expressed in CHO cells; type: cell-based
T3 sequence (P30542 whole entry): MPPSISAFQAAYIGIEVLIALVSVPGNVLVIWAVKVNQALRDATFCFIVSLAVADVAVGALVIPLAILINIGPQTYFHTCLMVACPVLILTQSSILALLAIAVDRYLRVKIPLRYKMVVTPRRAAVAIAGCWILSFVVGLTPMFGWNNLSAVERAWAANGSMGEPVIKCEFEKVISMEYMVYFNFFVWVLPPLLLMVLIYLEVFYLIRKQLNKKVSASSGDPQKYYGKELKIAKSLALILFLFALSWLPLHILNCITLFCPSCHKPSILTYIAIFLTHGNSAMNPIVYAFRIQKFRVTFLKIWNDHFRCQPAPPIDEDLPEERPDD

[4] = target: T4, Adenosine receptor A1 (Homo sapiens) (UniProt P30542); experiment: Displacement of [3H]DPCPX from human A1 receptor expressed in CHO cells at 10000 nM; type: cell-based
T4 sequence (whole entry): T3 sequence (P30542 whole entry)

Adenosine receptor A3 = target: T5, Adenosine receptor A3 (Homo sapiens, UniProt P0DMS8); experiment: Displacement of […] from human A3 receptor expressed in HeLa cells; type: cell-based
T5 sequence (P0DMS8 whole entry): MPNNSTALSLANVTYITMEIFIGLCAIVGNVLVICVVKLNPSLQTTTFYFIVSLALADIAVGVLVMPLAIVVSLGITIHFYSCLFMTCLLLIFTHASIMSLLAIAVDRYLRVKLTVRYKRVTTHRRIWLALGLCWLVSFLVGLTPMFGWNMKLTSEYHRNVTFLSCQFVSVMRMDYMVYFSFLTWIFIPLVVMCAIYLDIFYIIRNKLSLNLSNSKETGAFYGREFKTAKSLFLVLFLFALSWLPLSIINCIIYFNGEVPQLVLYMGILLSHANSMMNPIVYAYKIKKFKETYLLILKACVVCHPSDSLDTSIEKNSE

[5] = target: T6, Adenosine receptor A3 (Homo sapiens) (UniProt P0DMS8); experiment: Displacement of […] from human A3 receptor expressed in HeLa cells at 1000 nM; type: cell-based
T6 sequence (whole entry): T5 sequence (P0DMS8 whole entry)

[6] = target: T4, Adenosine receptor A1 (Homo sapiens); experiment: Displacement of [3H]DPCPX from human A1 receptor expressed in CHO cells at 1000 nM; type: cell-based
Adenosine receptor A2b [7] = target: T1, Adenosine receptor A2b; experiment: Activity at human A2B receptor expressed in HEK293 cells assessed as inhibition of NECA-induced intracellular cAMP levels by ELISA; type: functional, cell-based
Adenosine receptor A2b [8] = target: T7, Adenosine receptor A2b (Mus musculus, UniProt Q60614); experiment: Activity at mouse A2B receptor expressed in CHO cells assessed as inhibition of NECA-induced intracellular cAMP levels by ELISA; type: functional, cell-based
T7 sequence (Q60614 whole entry): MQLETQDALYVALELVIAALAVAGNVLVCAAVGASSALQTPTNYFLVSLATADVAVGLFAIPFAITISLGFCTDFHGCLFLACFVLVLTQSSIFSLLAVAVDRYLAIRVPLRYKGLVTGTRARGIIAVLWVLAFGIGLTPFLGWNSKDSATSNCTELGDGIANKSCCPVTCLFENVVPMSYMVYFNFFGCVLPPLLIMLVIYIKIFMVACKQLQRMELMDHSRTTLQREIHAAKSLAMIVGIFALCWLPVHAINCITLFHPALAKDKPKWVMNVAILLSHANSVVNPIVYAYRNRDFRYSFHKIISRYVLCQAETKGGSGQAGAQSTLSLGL

[9] = target: T8, Adenosine receptors; A2b & A3 (Homo sapiens, UniProt P29275+P0DMS8); experiment: Inhibition of NECA-induced IL6 production in human fibroblast after 24 hrs by ELISA; type: functional
T8 sequence (P29275 whole entry): T1 sequence (P29275 whole entry)
T8 sequence (P0DMS8 whole entry): T5 sequence (P0DMS8 whole entry)

Adenosine receptor A2b [10] = target: T7, Adenosine receptor A2b; experiment: Inhibition of NECA-induced IL6 production in Swiss mouse fibroblasts after 24 hrs by ELISA; type: functional
[11] = Cmax in Swiss mouse at 10 mg/kg, po; type: ADME, organism-based; set-up: dose 10 mg/kg, route oral; settings: in vivo
[12] = Cmax in Wistar rat at 10 mg/kg, po; type: ADME, organism-based; set-up: dose 10 mg/kg, route oral; settings: in vivo
[13] = Cmax in Beagle dog at 10 mg/kg, po; type: ADME, organism-based, Canis lupus familiaris; set-up: dose 10 mg/kg, route oral; settings: in vivo
[14] = Tmax in Swiss mouse at 10 mg/kg, po; type: ADME, organism-based; set-up: dose 10 mg/kg, route oral; settings: in vivo
[15] = Tmax in Wistar rat at 10 mg/kg, po; type: ADME, organism-based; set-up: dose 10 mg/kg, route oral; settings: in vivo
[16] = Tmax in Beagle dog at 10 mg/kg, po; type: ADME, organism-based, Canis lupus familiaris; set-up: dose 10 mg/kg, route oral; settings: in vivo
[17] = AUC in Swiss mouse at 10 mg/kg, po; type: ADME, organism-based; set-up: dose 10 mg/kg, route oral; settings: plasma
[18] = AUC in Wistar rat at 10 mg/kg, po; type: ADME, organism-based; set-up: dose 10 mg/kg, route oral; settings: plasma
[19] = AUC in Beagle dog at 10 mg/kg, po; type: ADME, organism-based, Canis lupus familiaris; set-up: dose 10 mg/kg, route oral; settings: plasma
[20] = Half life in Wistar rat at 1 mg/kg, iv; type: ADME, organism-based; set-up: dose 1 mg/kg, route intravenous; settings: in vivo
[21] = Half life in Beagle dog at 1 mg/kg, iv; type: ADME, organism-based, Canis lupus familiaris; set-up: dose 1 mg/kg, route intravenous; settings: in vivo
[22] = Mean residence time in Wistar rat at 10 mg/kg, po; type: ADME, organism-based; set-up: dose 10 mg/kg, route oral; settings: in vivo
[23] = Mean residence time in Beagle dog at 10 mg/kg, po; type: ADME, organism-based, Canis lupus familiaris; set-up: dose 10 mg/kg, route oral; settings: in vivo
[24] = Mean residence time in Wistar rat at 1 mg/kg, iv; type: ADME, organism-based; set-up: dose 1 mg/kg, route intravenous; settings: in vivo
[25] = Mean residence time in Beagle dog at 1 mg/kg, iv; type: ADME, organism-based, Canis lupus familiaris; set-up: dose 1 mg/kg, route intravenous; settings: in vivo
Rattus norvegicus = experiment: Clearance in Wistar rat at 1 mg/kg, iv; type: ADME, organism-based; set-up: dose 1 mg/kg, route intravenous; settings: in vivo
[26] = Clearance in Beagle dog at 1 mg/kg, iv; type: ADME, organism-based, Canis lupus familiaris; set-up: dose 1 mg/kg, route intravenous; settings: in vivo
[27] = Volume of distribution at steady state in Wistar rat at 1 mg/kg, iv; type: ADME, organism-based; set-up: dose 1 mg/kg, route intravenous; settings: in vivo, read-out: Vdss
[28] = Volume of distribution at steady state in Beagle dog at 1 mg/kg, iv; type: ADME, organism-based, Canis lupus familiaris; set-up: dose 1 mg/kg, route intravenous; settings: in vivo, read-out: Vdss
[29] = Bioavailability in Wistar rat at 10 mg/kg, po; type: ADME, organism-based; settings: in vivo
[30] = Bioavailability in Beagle dog at 10 mg/kg, po; type: ADME, organism-based, Canis lupus familiaris; settings: in vivo
[31] = target: Adenosine receptor A3 (Mus musculus) (UniProt Q61618); settings: CHO, 10 uM
Sequence of Adenosine receptor A3 (Mus musculus) (Q61618 whole entry, looked up): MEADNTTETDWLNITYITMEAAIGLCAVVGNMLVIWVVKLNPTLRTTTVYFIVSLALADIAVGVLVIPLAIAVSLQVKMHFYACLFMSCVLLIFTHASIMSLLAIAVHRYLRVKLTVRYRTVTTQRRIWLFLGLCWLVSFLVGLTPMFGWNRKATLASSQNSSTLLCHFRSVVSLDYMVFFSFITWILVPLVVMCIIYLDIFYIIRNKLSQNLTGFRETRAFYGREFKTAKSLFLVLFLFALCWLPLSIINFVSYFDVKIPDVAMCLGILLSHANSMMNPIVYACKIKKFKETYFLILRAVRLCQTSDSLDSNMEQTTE
Description: Activity at mouse A3 receptor expressed in CHO cells assessed as inhibition of NECA-induced intracellular cAMP levels at 10 uM by ELISA

## O=c1ccc(Nc2ncc(-c3ccncn3)c(-c3ccco3)n2)c[nH]1
Adenosine receptor A2b [1]
  Ki: 0.016 µM
Adenosine receptor A2a [2]
  Ki: > 2.5 µM
Adenosine receptor A2a [3]
  inhibition: 25%
Adenosine receptor A1
  Ki: > 10 µM
[4]
  inhibition: 31%
Adenosine receptor A3
  Ki: > 1 µM
[5]
  inhibition: 15%

## COc1ccc(Nc2ncc(-c3ccncn3)c(-c3ccco3)n2)cn1
Adenosine receptor A2b [1]
  Ki: 0.115 µM
Adenosine receptor A2a [2]
  Ki: > 2.5 µM
Adenosine receptor A2a [3]
  inhibition: 21%
Adenosine receptor A1
  Ki: > 10 µM
[4]
  inhibition: 25%
Adenosine receptor A3
  Ki: > 1 µM
[5]
  inhibition: 29%

## Cn1cc(Nc2ncc(-c3ccncn3)c(-c3ccco3)n2)ccc1=O
Adenosine receptor A2b [1]
  Ki: 0.028 µM
Adenosine receptor A2a [2]
  Ki: > 2.5 µM
Adenosine receptor A2a [3]
  inhibition: 20%
Adenosine receptor A1
  Ki: > 10 µM
[4]
  inhibition: 17%
Adenosine receptor A3
  Ki: > 1 µM
[5]
  inhibition: 28%

## COc1ncc(Nc2ncc(-c3ccncn3)c(-c3ccco3)n2)cn1
Adenosine receptor A2b [1]
  Ki: 0.039 µM
Adenosine receptor A2a [2]
  Ki: > 2.5 µM
Adenosine receptor A2a [3]
  inhibition: 25%
Adenosine receptor A1
  Ki: > 10 µM
[4]
  inhibition: 45%
Adenosine receptor A3
  Ki: > 1 µM
[5]
  inhibition: 32%

## N#Cc1cncc(Nc2ncc(-c3ccncn3)c(-c3ccco3)n2)c1
Adenosine receptor A2b [1]
  Ki: 0.069 µM
Adenosine receptor A2a [2]
  Ki: > 2.5 µM
Adenosine receptor A2a [3]
  inhibition: 37%
Adenosine receptor A1
  Ki: > 10 µM
[4]
  inhibition: 22%
Adenosine receptor A3
  Ki: > 1 µM
[5]
  inhibition: 24%

## O=c1ccc(Nc2ncc(-c3ccncn3)c(-c3ccco3)n2)cn1CC1CC1
Adenosine receptor A2b [1]
  Ki: 0.119 µM
Adenosine receptor A2a [2]
  Ki: > 2.5 µM
Adenosine receptor A2a [3]
  inhibition: 38.5%
Adenosine receptor A1
  Ki: > 10 µM
[4]
  inhibition: 28%
Adenosine receptor A3
  Ki: > 1 µM
[5]
  inhibition: 29%

## [O-][n+]1cccc(Nc2ncc(-c3ccncn3)c(-c3ccco3)n2)c1
Adenosine receptor A2b [1]
  Ki: 0.034 µM
Adenosine receptor A2a [2]
  Ki: > 2.5 µM
Adenosine receptor A2a [3]
  inhibition: 24%
Adenosine receptor A1
  Ki: > 10 µM
[4]
  inhibition: 38%
Adenosine receptor A3
  Ki: > 1 µM
[5]
  inhibition: 35%

## c1coc(-c2nc(Nc3cnccn3)ncc2-c2ccncn2)c1
Adenosine receptor A2b [1]
  Ki: 0.116 µM
Adenosine receptor A2a [2]
  Ki: > 2.5 µM
Adenosine receptor A2a [3]
  inhibition: 21%
Adenosine receptor A1
  Ki: > 10 µM
[4]
  inhibition: 30%
Adenosine receptor A3
  Ki: > 1 µM
[5]
  inhibition: 18%

## c1cncc(Nc2ncc(-c3ccncn3)c(-c3ccco3)n2)c1
Adenosine receptor A2b [1]
  Ki: 0.017 µM
Adenosine receptor A2a [2]
  Ki: > 2.5 µM
Adenosine receptor A2a [3]
  inhibition: 40%
Adenosine receptor A1
  Ki: > 1 µM
[6]
  inhibition: 14%
Adenosine receptor A3
  Ki: > 1 µM
[5]
  inhibition: 36%
Adenosine receptor A2b [7]
  IC50: 0.321 µM
Adenosine receptor A2b [8]
  IC50: 0.349 µM
[9]
  IC50: 0.34 µM
Adenosine receptor A2b [10]
  IC50: 0.64 µM
[11]
  Cmax: 13 µM
[12]
  Cmax: 11 µM
[13]
  Cmax: 6 µM
[14]
  Tmax: 18 min
[15]
  Tmax: 18 min
[16]
  Tmax: 78 min
[17]
  AUC: 4 µM·h
[18]
  AUC: 16 µM·h
[19]
  AUC: 15 µM·h
[20]
  half-life: 12 min
[21]
  half-life: 48 min
[22]
  MRT: 84 min
[23]
  MRT: 108 min
[24]
  MRT: 18 min
[25]
  MRT: 42 min
Rattus norvegicus
  clearance: 25 mL/min/kg
[26]
  clearance: 28 mL/min/kg
[27]
  Vd: 0.5 L/kg
[28]
  Vd: 1.1 L/kg
[29]
  bioavailability: 75%
[30]
  bioavailability: 81%
[31]
  inhibition: 5%

## c1coc(-c2nc(Nc3cncnc3)ncc2-c2ccncn2)c1
Adenosine receptor A2b [1]
  Ki: 0.024 µM
Adenosine receptor A2a [2]
  Ki: > 2.5 µM
Adenosine receptor A2a [3]
  inhibition: 29%
Adenosine receptor A1
  IC50: 0.045 µM
  Ki: > 10 µM
Adenosine receptor A3
  Ki: > 1 µM
[5]
  inhibition: 42%
